Reference: patent US8232407B2, “Nitrogenous heterocyclic compounds with insecticidal activity, and the preparation and use thereof” (East China University of Science and Technology, priority 2008, dated 2012)

Assays:
Nilaparvata lugens = test: Insecticidal activities to plant hopper, spraying method; type: in vivo; details: in vivo
Method: (§1) Mortality (%)=(the number of the survival aphis in control group−the number of the survival aphis in the treatment group)/the number of the survival aphis in control group×100%
(2): Insecticidal Activities to Plant hopper
Plant hopper (Nilaparvata lugens), which belongs to Homoptera and has a piercing-sucking mouthpart, is a common insect for agricultural plant. Nilaparvata lugens was tested by spraying method.
Procedure: the test compound was exactly formulated with acetone to form solutions having concentrations of 500, 250, 100, 50, 25, 12.5, 6.25, 3.13, 1.57 and 0.79 ppm, respectively. Aqueous acetone solution was used as control. Each treatment was repeated for 3 tumblers (3 times). Two ml of solution was sprayed uniformly to each tumbler with a mini manual sprayer. 10 insects were introduced to every basin 6 hours before spraying. Three series of experiments were conducted. The number of killed insects was counted after 24 hours to calculate the mortality according to the above mentioned formula.

Aphis craccivoral = test: Insecticidal activities to aphids, immersion method; type: in vivo; details: in vivo
Method: (1): Insecticidal Activities to Aphids
Aphis (Aphis craccivoral), which belongs to Homoptera and has a piercing-sucking mouthpart, is a common insect for agricultural plant. Aphis craccivoral was tested by immersion method.
Procedure: exactly weighed various samples were independently added to N,N-dimethylformamide to form 10 g/L stock solutions. The stock solutions were diluted with 0.2 mL/L aqueous Triton X-100 solution to a concentration of 500 ppm. After stably sucking on bean sprout, the wingless adult aphis together with bean sprout were dipped into 500 ppm dilution, taken out after 5 seconds, and the excess dilution was sucked off with bibulous paper. The treated wingless adult aphis was incubated in clean vessel at a constant temperature of 23° C. Each concentration was repeated for 3 times and the control group was treated with 0.2mL/L aqueous Triton X-100 solution. The number of killed aphis was counted after 24 hours and the mortality was to calculated according to the following formula:
as §1

| SMILES | Nilaparvata lugens Mortality (%) 500 ppm (Nilaparvata lugens) [%] | Aphis craccivoral Mortality (%) 500 ppm (Aphis craccivoral) [%] |
| --- | --- | --- |
| CCN(Cc1ccc(Cl)nc1)C(=NC)C(=C(C)c1ccoc1)[N+](=O)[O-] [Compound 196] | 100 | 100 |
| CCN=C(C(=Cc1ccc([N+](=O)[O-])o1)[N+](=O)[O-])N(CC)Cc1ccc(Cl)nc1 [Compound 191] | 100 | 95 |
| CN=C(C(=Cc1ccsc1)[N+](=O)[O-])N(C)Cc1cnc(Cl)s1 [Compound 221] | 87 | 78 |
| CN=C(C(=Cc1cccs1)[N+](=O)[O-])N(C)Cc1cnc(Cl)s1 [Compound 220] | 67 | 80 |
| CCN=C(C(=Cc1ccc([N+](=O)[O-])s1)[N+](=O)[O-])N(C)Cc1ccc(Cl)nc1 [Compound 176] | 100 | 86 |
| CN=C(NCc1ccc(Cl)nc1)C(=Cc1cccs1)[N+](=O)[O-] [Compound 156] | 90 | 89 |
| CN=C(C(=C(C)c1ccc([N+](=O)[O-])o1)[N+](=O)[O-])N(C)C(C)c1ccc(Cl)nc1 (stereo not shown) [Compound 212] | 100 | 96 |
| CCN=C(C(=Cc1ccc(Cl)o1)[N+](=O)[O-])N(CC)Cc1ccc(Cl)nc1 [Compound 192] | 100 | 97 |
| CN=C(C(=Cc1ccc([N+](=O)[O-])s1)[N+](=O)[O-])N(C)Cc1ccc(Cl)nc1 [Compound 168] | 90 | 80 |
| CN=C(C(=Cc1ccc([N+](=O)[O-])o1)[N+](=O)[O-])N(C)Cc1ccc(Cl)nc1 [Compound 163] | 100 | 100 |
| CCN(Cc1ccc(Cl)nc1)C(=NC)C(=Cc1ccc([N+](=O)[O-])o1)[N+](=O)[O-] [Compound 181] | 100 | 100 |
| CCN(C(=NC)C(=Cc1ccc[nH]1)[N+](=O)[O-])C(C)c1ccc(Cl)nc1 (stereo not shown) [Compound 211] | 73 | 73 |
| CCN(Cc1ccc(Cl)nc1)C(=NC)C(=C(C)c1ccc(Br)o1)[N+](=O)[O-] [Compound 199] | 100 | 84 |
| CN=C(C(=Cc1ccc[nH]1)[N+](=O)[O-])N(C)Cc1ccc(Cl)nc1 [Compound 170] | 34 | 89 |
| CCN(Cc1cnc(Cl)s1)C(=NC)C(=Cc1ccc(Cl)s1)[N+](=O)[O-] [Compound 230] | 50 | 75 |
| CCN(C(=NC)C(=Cc1ccc(Cl)o1)[N+](=O)[O-])C(C)c1ccc(Cl)nc1 (stereo not shown) [Compound 208] | 100 | 42 |
| CN=C(C(=Cc1ccsc1)[N+](=O)[O-])N(C)Cc1ccc(Cl)nc1 [Compound 237] | 98 | 87 |
| CN=C(C(=Cc1ccoc1)[N+](=O)[O-])N(C)Cc1ccc(Cl)nc1 [Compound 233] | 86 | 80 |
| CCN(Cc1ccc(Cl)nc1)C(=NC)C(=Cc1ccc(Cl)s1)[N+](=O)[O-] [Compound 187] | 100 | 100 |
| CN=C(C(=Cc1ccsc1)[N+](=O)[O-])N(C)Cc1ccc(Cl)nc1 [Compound 167] | 100 | 100 |
| CCN(C(=NC)C(=Cc1ccoc1)[N+](=O)[O-])C(C)c1ccc(Cl)nc1 (stereo not shown) [Compound 206] | 44 | 65 |
| CCN(Cc1ccc(Cl)nc1)C(=NC)C(=Cc1ccc(Br)o1)[N+](=O)[O-] [Compound 183] | 100 | 100 |

| SMILES | Nilaparvata lugens Mortality (%) 500 ppm (Nilaparvata lugens) [%] | Aphis craccivoral Mortality (%) 500 ppm (Aphis craccivoral) [%] |
| --- | --- | --- |
| CCN(Cc1ccc(Cl)nc1)C(=NC)C(=Cc1ccoc1)[N+](=O)[O-] [Compound 180] | 100 | 100 |
| CCN(Cc1ccc(Cl)nc1)C(=NC)C(=Cc1ccc([N+](=O)[O-])s1)[N+](=O)[O-] [Compound 186] | 100 | 100 |
| CN=C(C(=Cc1ccc[nH]1)[N+](=O)[O-])N(C)Cc1ccc(Cl)nc1 [Compound 240] | 68 | 77 |
| CCN(C(=NC)C(=Cc1ccco1)[N+](=O)[O-])C(C)c1ccc(Cl)nc1 (stereo not shown) [Compound 205] | 87 | 56 |
| CN=C(C(=Cc1ccc(Br)o1)[N+](=O)[O-])N(C)Cc1ccc(Cl)nc1 [Compound 235] | 86 | 91 |
| CN=C(C(=Cc1ccoc1)[N+](=O)[O-])N(C)Cc1ccc(Cl)nc1 [Compound 162] | 100 | 100 |
| CN=C(C(=C(C)c1ccc[nH]1)[N+](=O)[O-])N(C)C(C)c1ccc(Cl)nc1 (stereo not shown) [Compound 216] | 100 | 100 |
| CN=C(NCc1ccc(Cl)nc1)C(=Cc1ccc([N+](=O)[O-])o1)[N+](=O)[O-] [Compound 153] | 87 | 56 |
| CN=C(C(=Cc1ccc([N+](=O)[O-])s1)[N+](=O)[O-])N(C)Cc1ccc(Cl)nc1 [Compound 238] | 98 | 91 |
| CN=C(NCc1ccc(Cl)nc1)C(=Cc1ccc([N+](=O)[O-])s1)[N+](=O)[O-] [Compound 158] | 43 | 43 |
| CCN=C(C(=Cc1ccoc1)[N+](=O)[O-])N(C)Cc1ccc(Cl)nc1 [Compound 171] | 100 | 93 |
| CCN=C(C(=Cc1cccs1)[N+](=O)[O-])N(C)Cc1ccc(Cl)nc1 [Compound 175] | 100 | 100 |
| CN=C(C(=Cc1ccco1)[N+](=O)[O-])N(C)Cc1ccc(Cl)nc1 [Compound 232] | 56 | 96 |
| CN=C(NCc1ccc(Cl)nc1)C(=Cc1ccc(Cl)o1)[N+](=O)[O-] [Compound 154] | 65 | 52 |
| CCN(Cc1cnc(Cl)s1)C(=NC)C(=Cc1ccc(Cl)o1)[N+](=O)[O-] [Compound 228] | 100 | 100 |
| CN=C(C(=Cc1ccc(Cl)o1)[N+](=O)[O-])N(C)Cc1cnc(Cl)s1 [Compound 218] | 86 | 88 |
| CCN(Cc1ccc(Cl)nc1)C(=NC)C(=C(C)c1ccco1)[N+](=O)[O-] [Compound 195] | – | 100 |
| CCN(Cc1ccc(Cl)nc1)C(=NC)C(=C(C)c1ccc[nH]1)[N+](=O)[O-] [Compound 204] | 100 | 92 |
| CN=C(C(=C(C)c1ccc([N+](=O)[O-])s1)[N+](=O)[O-])N(C)C(C)c1ccc(Cl)nc1 (stereo not shown) [Compound 214] | 100 | 98 |
| CN=C(C(=Cc1ccc(Cl)s1)[N+](=O)[O-])N(C)Cc1ccc(Cl)nc1 [Compound 239] | 34 | 58 |
| CCN=C(C(=Cc1ccc(Cl)o1)[N+](=O)[O-])N(C)Cc1ccc(Cl)nc1 [Compound 173] | 85 | 87 |
